In US20260132127A1, “NOVEL SPIRO COMPOUND” (MITSUBISHI TANABE PHARMA CORPORATION, priority 2021, published 2026):

Molecular target: T1, human TRH-DE (Homo sapiens, UniProt Q9UKU6)
T1 construct: expressed in transfected cells; host or cells: Expi 293 cells (transient expression), membrane fraction
T1 sequence (Q9UKU6 1-1069): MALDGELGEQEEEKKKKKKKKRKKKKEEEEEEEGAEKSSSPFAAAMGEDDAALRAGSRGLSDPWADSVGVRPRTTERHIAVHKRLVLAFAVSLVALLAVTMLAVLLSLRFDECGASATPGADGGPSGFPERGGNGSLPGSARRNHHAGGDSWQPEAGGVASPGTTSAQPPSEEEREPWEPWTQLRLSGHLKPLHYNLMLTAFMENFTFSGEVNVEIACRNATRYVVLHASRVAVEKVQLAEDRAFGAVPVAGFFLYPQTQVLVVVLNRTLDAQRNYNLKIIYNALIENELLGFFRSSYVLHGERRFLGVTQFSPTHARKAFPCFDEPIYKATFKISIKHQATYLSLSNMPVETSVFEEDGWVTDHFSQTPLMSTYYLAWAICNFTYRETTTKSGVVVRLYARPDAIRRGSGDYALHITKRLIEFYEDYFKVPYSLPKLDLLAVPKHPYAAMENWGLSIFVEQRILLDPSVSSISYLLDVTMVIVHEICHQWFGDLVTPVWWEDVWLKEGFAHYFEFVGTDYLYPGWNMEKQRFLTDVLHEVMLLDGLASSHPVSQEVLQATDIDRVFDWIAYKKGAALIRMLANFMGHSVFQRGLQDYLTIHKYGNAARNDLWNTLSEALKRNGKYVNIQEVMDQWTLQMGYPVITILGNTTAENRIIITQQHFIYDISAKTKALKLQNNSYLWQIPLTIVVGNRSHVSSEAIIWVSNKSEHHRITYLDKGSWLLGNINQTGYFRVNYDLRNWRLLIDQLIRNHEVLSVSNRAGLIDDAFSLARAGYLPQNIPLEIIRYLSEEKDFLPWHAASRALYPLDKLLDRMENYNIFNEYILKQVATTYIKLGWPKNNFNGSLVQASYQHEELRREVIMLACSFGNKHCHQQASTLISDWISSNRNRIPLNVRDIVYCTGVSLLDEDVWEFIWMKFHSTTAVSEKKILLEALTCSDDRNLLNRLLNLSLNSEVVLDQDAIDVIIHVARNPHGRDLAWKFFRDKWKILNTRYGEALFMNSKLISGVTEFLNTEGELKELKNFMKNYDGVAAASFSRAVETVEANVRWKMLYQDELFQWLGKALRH
Test: TRH-DE inhibition test (RapidFire MS measurement of product Cyclo (His-Pro))
Assay type: biochemical
Settings: membrane fraction of Expi 293 cells expressing human TRH-DE; 10 μM TRH substrate; room temperature, 2 hours; 16-point concentration test
Method: The compounds described in “1. […] The enzyme inhibitory activity of each of the compounds was evaluated by measuring the amount of the product Cyclo (His-Pro) of the enzyme reaction using a RapidFire RF 365 HTMS system (manufactured by Agilent Technologies, Inc.) connected to a triple quadrupole mass spectrometer (API 4000, manufactured by SCIEX). A membrane fraction prepared from Expi 293 cells transiently expressing human TRH-DE was used as an enzyme. The membrane fraction was suspended in 4 μg/ml of a reaction buffer (50 mM sodium phosphate (pH 7.4), 25 mM NaCl, 0.01% Triton […], and 200 μM bacitracin) and mixed with the test compound at each concentration. 10 μM […]), which was a substrate, was added, and the mixture was reacted at room temperature for 2 hours. The reaction was stopped in the same amount of a solution of acetonitrile:methanol (1:1) containing 1 μM of the stable isotope Cyclo ([…]) as an internal standard, and the supernatant was collected after centrifugation. In the RapidFire RF 365 HTMS system, a portion of the supernatant was aspirated, loaded onto a Graphic Carbon column (manufactured by Agilent Technologies, Inc.) with a buffer A (water, 0.09% formic acid, 0.01% trifluoroacetic acid) and washed with ultrapure water. Next, washing was performed with acetonitrile. The contents in the column were eluted with a buffer B (80% acetonitrile, 0.09% formic acid, 0.01% trifluoroacetic acid) and injected into a mass spectrometer for analysis. […] The ESI voltage was set to 5,500 V and the temperature was set to 650° C. For the calculation of the inhibition rate, a Ratio value corrected by dividing the product amount by the internal standard amount was used. The inhibition rate (%) was calculated by % Inhibition={1-(Ratio value of sample-Ratio value of blank)/(Ratio value of control-Ratio value of blank)}×100. The IC50 value was calculated from the concentration reactivity test at 16 points.

| Structure (SMILES) | IC50 |
| --- | --- |
| C[C@@H]1COc2cc(N3CCC(C(F)(F)F)C3)ncc2C(=O)N1C1CC2(C1)CN(S(=O)(=O)c1ccccc1F)C2 (mixture of isomers) [Example 145] | 1 nM |
| C[C@@H]1COc2cc(N3CCCC3C(F)(F)F)ncc2C(=O)N1C1CC2(C1)CN(S(=O)(=O)c1ccccc1F)C2 (mixture of isomers) [Example 146] | 1 nM |
| CC1CCCN(c2cc3c(cn2)C(=O)N(C2CC4(C2)CN(S(=O)(=O)c2ccccc2F)C4)[C@H](C)CO3)C1 (mixture of isomers) [Example 152] | 1 nM |
| C[C@@H]1COc2nc(N3CCOC(C(F)(F)F)C3)ncc2C(=O)N1C1CC2(C1)CN(S(=O)(=O)c1ccccc1F)C2 (mixture of isomers) [Example 385] | 13 nM |
| CC1CN(c2ncc3c(n2)OC[C@@H](C)N(C2CC4(C2)CN(S(=O)(=O)c2ccccc2F)C4)C3=O)CCO1 (mixture of isomers) [Example 386] | 13 nM |
| C[C@@H]1COc2nc(N3CCC4(CCOC4)C3)ncc2C(=O)N1C1CC2(C1)CN(S(=O)(=O)c1ccccc1F)C2 (mixture of isomers) [Example 405] | 3 nM |
| C[C@@H]1COc2nc(N3CCCC34CCOC4)ncc2C(=O)N1C1CC2(C1)CN(S(=O)(=O)c1ccccc1F)C2 (mixture of isomers) [Example 406] | 6 nM |
| CC1CN(C2CC3(C2)CN(S(=O)(=O)c2ccccc2F)C3)C(=O)c2ncccc2O1 (racemic) [Example 2] | 1010 nM |
| CC1COc2ccc(F)nc2C(=O)N1C1CC2(C1)CN(S(=O)(=O)c1ccccc1F)C2 (racemic) [Example 9] | 14 nM |
| CC1COc2cc(F)cnc2C(=O)N1C1CC2(C1)CN(S(=O)(=O)c1ccccc1F)C2 (racemic) [Example 10] | 12 nM |
| Cc1ccc2c(n1)C(=O)N(C1CC3(C1)CN(S(=O)(=O)c1ccccc1F)C3)C(C)CO2 (racemic) [Example 14] | 24 nM |
| Cc1cnc2c(c1)OCC(C)N(C1CC3(C1)CN(S(=O)(=O)c1ccccc1F)C3)C2=O (racemic) [Example 15] | 7 nM |
| Cc1ccnc2c1OCC(C)N(C1CC3(C1)CN(S(=O)(=O)c1ccccc1F)C3)C2=O (racemic) [Example 16] | 20 nM |
| CC1COc2ccnc(F)c2C(=O)N1C1CC2(C1)CN(S(=O)(=O)c1ccccc1F)C2 (racemic) [Example 20] | 17 nM |
| CC1COc2c(F)cncc2C(=O)N1C1CC2(C1)CN(S(=O)(=O)c1ccccc1F)C2 (racemic) [Example 21] | 16 nM |
| CC1COc2ccnc(C(F)(F)F)c2C(=O)N1C1CC2(C1)CN(S(=O)(=O)c1ccccc1F)C2 (racemic) [Example 23] | 68 nM |
| CC1COc2nccc(F)c2C(=O)N1C1CC2(C1)CN(S(=O)(=O)c1ccccc1F)C2 (racemic) [Example 25] | 54 nM |
| CC1COc2ncc(F)cc2C(=O)N1C1CC2(C1)CN(S(=O)(=O)c1ccccc1F)C2 (racemic) [Example 26] | 33 nM |
| CC1COc2nc(F)ccc2C(=O)N1C1CC2(C1)CN(S(=O)(=O)c1ccccc1F)C2 (racemic) [Example 28] | 23 nM |
| Cc1ccnc2c1C(=O)N(C1CC3(C1)CN(S(=O)(=O)c1ccccc1F)C3)C(C)CO2 (racemic) [Example 29] | 50 nM |
| Cc1cnc2c(c1)C(=O)N(C1CC3(C1)CN(S(=O)(=O)c1ccccc1F)C3)C(C)CO2 (racemic) [Example 30] | 15 nM |
| Cc1ccc2c(n1)OCC(C)N(C1CC3(C1)CN(S(=O)(=O)c1ccccc1F)C3)C2=O (racemic) [Example 31] | 9 nM |
| CC1c2ccccc2CCC(=O)N1C1CC2(C1)CN(S(=O)(=O)c1ccccc1F)C2 (racemic) [Example 45, 2-[2-(2-fluorophenyl)sulfonyl-2-azaspiro[3,3]heptan-6-yl]-1-methyl-4,5-dihydro-1H-2-benzazepin-3-one] | 214 nM |
| CC1c2ccccc2OCC(=O)N1C1CC2(C1)CN(S(=O)(=O)c1ccccc1F)C2 (racemic) [Example 46] | 129 nM |

| Structure (SMILES) | IC50 |
| --- | --- |
| CC1c2ccccc2NCC(=O)N1C1CC2(C1)CN(S(=O)(=O)c1ccccc1F)C2 (racemic) [Example 47] | 544 nM |
| CC1COc2cccnc2C(=O)N1C1CC2(C1)CN(S(=O)(=O)c1ccccc1F)C2 (racemic) [Example 49] | 6 nM |
| CCC1COc2cccnc2C(=O)N1C1CC2(C1)CN(S(=O)(=O)c1ccccc1F)C2 (racemic) [Example 50] | 19 nM |
| CC1COc2ccncc2C(=O)N1C1CC2(C1)CN(S(=O)(=O)c1ccccc1F)C2 (racemic) [Example 51] | 8 nM |
| CCC1COc2ccncc2C(=O)N1C1CC2(C1)CN(S(=O)(=O)c1ccccc1F)C2 (racemic) [Example 52] | 22 nM |
| CC1COc2cnccc2C(=O)N1C1CC2(C1)CN(S(=O)(=O)c1ccccc1F)C2 (racemic) [Example 54] | 14 nM |
| CCC1COc2ncccc2C(=O)N1C1CC2(C1)CN(S(=O)(=O)c1ccccc1F)C2 (racemic) [Example 59] | 33 nM |
| CC1COc2ncccc2C(=O)N1C1CC2(C1)CN(S(=O)(=O)c1ccccc1F)C2 (racemic) [Example 63] | 22 nM |
| CC1COc2ccsc2C(=O)N1C1CC2(C1)CN(S(=O)(=O)c1ccccc1F)C2 (racemic) [Example 64] | 10 nM |
| CC1Cc2cccnc2C(=O)N1C1CC2(C1)CN(S(=O)(=O)c1ccccc1F)C2 (racemic) [Example 65] | 27 nM |
| CC1Cc2ncccc2C(=O)N1C1CC2(C1)CN(S(=O)(=O)c1ccccc1F)C2 (racemic) [Example 66] | 31 nM |
| CC1Cc2nc(C(F)(F)F)ccc2C(=O)N1C1CC2(C1)CN(S(=O)(=O)c1ccccc1F)C2 (racemic) [Example 67] | 77 nM |
| CC1Cc2ccccc2OC(=O)N1C1CC2(C1)CN(S(=O)(=O)c1ccccc1F)C2 (racemic) [Example 71] | 126 nM |
| CC1COc2ncccc2C(=O)N1C1CC2(C1)CN(S(=O)(=O)c1cccc(F)c1)C2 (racemic) [Example 72] | 841 nM |
| CC1COc2ncccc2C(=O)N1C1CC2(C1)CN(S(=O)(=O)c1ccccc1Cl)C2 (racemic) [Example 73] | 92 nM |
| COc1cccc(S(=O)(=O)N2CC3(CC(N4C(=O)c5cccnc5OCC4C)C3)C2)c1 (racemic) [Example 74] | 918 nM |
| COc1ccc(S(=O)(=O)N2CC3(CC(N4C(=O)c5cccnc5OCC4C)C3)C2)cc1 (racemic) [Example 75] | 120 nM |
| Cc1ccccc1S(=O)(=O)N1CC2(CC(N3C(=O)c4cccnc4OCC3C)C2)C1 (racemic) [Example 76] | 566 nM |
| Cc1cccc(S(=O)(=O)N2CC3(CC(N4C(=O)c5cccnc5OCC4C)C3)C2)c1 (racemic) [Example 77] | 324 nM |
| CC1COc2ncccc2C(=O)N1C1CC2(C1)CN(S(=O)(=O)c1ccccc1C(F)(F)F)C2 (racemic) [Example 78] | 2330 nM |
| CC1COc2ncccc2C(=O)N1C1CC2(C1)CN(S(=O)(=O)c1ccc(F)cc1)C2 (racemic) [Example 80] | 295 nM |
| CC1COc2ncccc2C(=O)N1C1CC2(C1)CN(S(=O)(=O)c1cccs1)C2 (racemic) [Example 81] | 670 nM |
| CC1CCc2cc(C(F)(F)F)cnc2C(=O)N1C1CC2(C1)CN(S(=O)(=O)c1ccccc1F)C2 (racemic) [Example 86] | 60 nM |
